According to patent publication US20230039887A1, “COMPOSITIONS FOR TOPICAL TREATMENT OF RADIATION DERMATITIS” (priority 2021, published 2023):

How the values were obtained:
Type in all cases: cell-based
[1] = test system: MT1G; assay: qPCR gene expression in tissues treated topically, MT1G; details: topical, without radiation exposure
Description: (§1) Next, changes in gene expression were measured in tissues treated topically with the formulations (without radiation exposure) using qPCR. This provides evidence that the CBD is being absorbed by the tissues. Five genes were examined: APOB, CSF2, IL24, MT1F, and MT1G.
(§2) Statistical significance was determined using unpaired t-test, P<0.05, N=3, and are indicated in bold. The results are provided in Table B in both linear fold change values (FC) and in percent change. It is noted that changes in gene expression in general were only seen in the treatments where CBD was used.

[2] = test system: IL24; assay: qPCR gene expression in tissues treated topically, IL24; details: topical, without radiation exposure
Description: as §1, §2

[3] = test system: CSF2; assay: qPCR gene expression in tissues treated topically, CSF2; details: topical, without radiation exposure
Description: (§3) Next, changes in gene expression were measured in tissues treated topically with the formulations (without radiation exposure) using qPCR. […] Five genes were examined: APOB, CSF2, IL24, MT1F, and MT1G.
(§4) Statistical significance was determined using unpaired t-test, P<0.05, N=3, and are indicated in bold. The results are provided in Table B in both linear fold change values (FC) and in percent change.

[4] = test system: cells; assay: MTT assay of cell viability after 24 hours topical application; parameters: cell viability: dose or concentration left out as unconfirmed
Description: Test materials were applied topically for 24 hours and an MTT assay was used to check the viability of cells.
The relative results are provided in the following Table A, with the untreated group defining 100% viability, and shown in FIG. 1. * indicates p≤0.05 and ** indicates p≤0.01 statistical significance after performing unpaired t-test.

[5] = test system: APOB; assay: qPCR gene expression in tissues treated topically, APOB; details: topical, without radiation exposure
Description: as §3, §4

[6] = test system: MT1F; assay: qPCR gene expression in tissues treated topically, MT1F; details: topical, without radiation exposure
Description: as §1, §2

In the case of `C=C(C)[C@@H]1CCC(C)=C[C@H]1c1c(O)cc(CCCCC)cc1O` [CBD, 2-[(1R,6R)-6-Isopropenyl-3-methylcyclohex-2-en-1-yl]-5-pentylbenzene-1,3-diol], the “MT1G gene expression, % Δ (percent change)” value ([1]; 1 mg/mL CBD) is reported as −41%, the “MT1G gene expression, % Δ (percent change)” value ([1]; 10 mg/mL CBD) is reported as −4% and the “MT1G gene expression, % Δ (percent change)” value ([1]; 30 mg/mL CBD) is reported as 92%. The “MT1G gene expression, % Δ (percent change)” value ([1]; 60 mg/mL CBD) was 2526%, the “MT1G gene expression, % Δ (percent change)” value ([1]; 120 mg/mL CBD) was 5186% and the “MT1G gene expression, % Δ (percent change)” value ([1]; 250 mg/mL CBD) was 13439%. For the same molecule, the “MT1G gene expression, % Δ (percent change)” value ([1]; 500 mg/mL CBD) was 33439%, the “MT1G gene expression, % Δ (percent change)” value ([1]; 750 mg/mL CBD) was 23223% and the “IL24 gene expression, % Δ (percent change)” value ([2]; 1 mg/mL CBD) was 55%. The “IL24 gene expression, % Δ (percent change)” value ([2]; 10 mg/mL CBD) was 48%, the “IL24 gene expression, % Δ (percent change)” value ([2]; 30 mg/mL CBD) was −70% and the “IL24 gene expression, % Δ (percent change)” value ([2]; 60 mg/mL CBD) was −11%. For the same molecule, the “IL24 gene expression, % Δ (percent change)” value ([2]; 120 mg/mL CBD) was 63%, the “IL24 gene expression, % Δ (percent change)” value ([2]; 250 mg/mL CBD) was 59% and the “IL24 gene expression, % Δ (percent change)” value ([2]; 500 mg/mL CBD) was −6%. The “IL24 gene expression, % Δ (percent change)” value ([2]; 750 mg/mL CBD) was 54%, the “CSF2 gene expression, % Δ (percent change)” value ([3]; 1 mg/mL CBD) was 117% and the “CSF2 gene expression, % Δ (percent change)” value ([3]; 10 mg/mL CBD) was 118%. For the same molecule, the “CSF2 gene expression, % Δ (percent change)” value ([3]; 30 mg/mL CBD) was −19%, the “CSF2 gene expression, % Δ (percent change)” value ([3]; 60 mg/mL CBD) was 186% and the “CSF2 gene expression, % Δ (percent change)” value ([3]; 120 mg/mL CBD) was 448%. The “CSF2 gene expression, % Δ (percent change)” value ([3]; 250 mg/mL CBD) was 763%, the “CSF2 gene expression, % Δ (percent change)” value ([3]; 500 mg/mL CBD) was −30% and the “CSF2 gene expression, % Δ (percent change)” value ([3]; 750 mg/mL CBD) was 93%. For the same molecule, the cell viability [4] was “significant increase”, the “APOB gene expression, % Δ (percent change)” value ([5]; 1 mg/mL CBD) was 23% and the “APOB gene expression, FC (linear fold change)” value ([5]; 1 mg/mL CBD) was 1.23. For the same molecule, the “APOB gene expression, % Δ (percent change)” value ([5]; 10 mg/mL CBD) was 0%, the “APOB gene expression, FC (linear fold change)” value ([5]; 10 mg/mL CBD) was 1.00 and the “APOB gene expression, % Δ (percent change)” value ([5]; 30 mg/mL CBD) was −16%. The “APOB gene expression, FC (linear fold change)” value ([5]; 30 mg/mL CBD) was −1.19, the “APOB gene expression, % Δ (percent change)” value ([5]; 60 mg/mL CBD) was 51% and the “APOB gene expression, % Δ (percent change)” value ([5]; 120 mg/mL CBD) was −9%. For the same molecule, the “APOB gene expression, FC (linear fold change)” value ([5]; 120 mg/mL CBD) was −1.10, the “APOB gene expression, % Δ (percent change)” value ([5]; 250 mg/mL CBD) was −60% and the “APOB gene expression, FC (linear fold change)” value ([5]; 250 mg/mL CBD) was −2.48. For the same molecule, the “APOB gene expression, % Δ (percent change)” value ([5]; 500 mg/mL CBD) was −96%, the “APOB gene expression, FC (linear fold change)” value ([5]; 500 mg/mL CBD) was −22.22 and the “APOB gene expression, % Δ (percent change)” value ([5]; 750 mg/mL CBD) was −96%. The “APOB gene expression, FC (linear fold change)” value ([5]; 750 mg/mL CBD) was −25.64, the “MT1F gene expression, % Δ (percent change)” value ([6]; 1 mg/mL CBD) was 147% and the “MT1F gene expression, % Δ (percent change)” value ([6]; 10 mg/mL CBD) was 40%. The “MT1F gene expression, % Δ (percent change)” value ([6]; 30 mg/mL CBD) was −65%, the “MT1F gene expression, % Δ (percent change)” value ([6]; 60 mg/mL CBD) was 134% and the “MT1F gene expression, % Δ (percent change)” value ([6]; 120 mg/mL CBD) was 602%. The “MT1F gene expression, % Δ (percent change)” value ([6]; 250 mg/mL CBD) was 2163%, the “MT1F gene expression, % Δ (percent change)” value ([6]; 500 mg/mL CBD) was 3963% and the “MT1F gene expression, % Δ (percent change)” value ([6]; 750 mg/mL CBD) was 2971%.

In the case of Triton-X, the “Relative Viability” value ([4]; positive control, topical 24 hours, untreated = 100%) is reported as 3%.
